One assay has as its system CF-PGE2 levels. Particulars: in humans; cited from earlier work.
Assay [1] relates to PGE2 generation from gingival homogenates. The note with it: ElAttar et al. 1984; cited from earlier work.
Assay [2] has as its system COX-derived eicosanoids in crevicular fluid. Particulars: cited from earlier work.
Assay [3] relates to P. gingivalis and ligature-induced experimental periodontitis. The assay can be described thus: Morphometric analysis of mandibles in rabbit experimental periodontitis. The assay is classed as in vivo, New Zealand White rabbits. The note with it: topical resolvin E1 before P. gingivalis application, every other day for 6 weeks; versus vehicle (ethanol).
For assay [4] the test system is unchanged. The assay is described as follows: Radiographic analysis (Bjorn technique) in rabbit experimental periodontitis. The assay is classed as in vivo, New Zealand White rabbits.
Assay [5] has the same test system. The assay is described as follows: Histological analysis (HE) in rabbit experimental periodontitis. It counts as in vivo, New Zealand White rabbits. The note with it: topical application; rabbits with P. gingivalis and ligature placement.
Setting [6] is: p<0.05 for vehicle group compared to resolvin E1 or ligature alone.

Regarding `CC(C(=O)O)c1ccc(-c2ccccc2)c(F)c1` (centres unmarked) [flurbiprofen], the CF-PGE2 levels entry in the assay with CF-PGE2 levels was “dramatically decreased”. Also, the “PGE2 generation from gingival homogenates” value in assay [1] is given as “significantly inhibited”. The “CF-PGE2 levels, gingival inflammation, tooth attachment loss and bone loss” value in assay [2] (Pauletto et al. 1997, in some cases bone gain) is on record as “reduced”. In addition, the “COX-derived eicosanoids in crevicular fluid (CF)” value in assay [2] (animals taking flurbiprofen) is reported as “decreased”.

In the case of `CC[C@@H](O)/C=C/C=C\C[C@@H](O)/C=C/C=C/C=C\[C@@H](O)CCCC(=O)O` [resolvin E1], in assay [3], the “bone destruction (defleshed bone specimens, FIG. 1)” value was “prevented” and the “gingival inflammation (gingival tissue of mandibles, FIG. 1)” value is given as “prevented”. In addition, in assay [4] (setting [6]), the “percentage of bone loss calculated by the Bjorn technique (FIG. 5)” value is “prevents the destructive effects” and the “percentage of tooth in bone measured on radiographs (FIG. 4)” value is recorded as “maintenance of bone levels”. The “bone loss, radiographic appearance of alveolar bone (FIG. 3)” value in assay [4] (topical application, bone at the same level as ligature alone) is recorded as “prevented the bone loss”. Moreover, in assay [5], the “bone loss, histology (FIG. 6)” value was “prevented” and the “inflammatory changes, histology (FIG. 6)” value is on record as “prevented”.
